Laboratory results: publication PMC9492777, “Reaction-based fluorogenic probes for detecting protein cysteine oxidation in living cells” (Nature Communications, 2022)

Target: EGFR (epidermal growth factor receptor) (Homo sapiens, UniProt P00533)
Assay: labelling in transfected HeLa cells, immunoprecipitation, in-gel fluorescence
Format: cell-based
Conditions: covalent, at Cys797 sulfenic acid; 50 uM probe, 500 uM H2O2, 1 h, 37 °C

Chain of EGFR (epidermal growth factor receptor) (P00533 25-1210): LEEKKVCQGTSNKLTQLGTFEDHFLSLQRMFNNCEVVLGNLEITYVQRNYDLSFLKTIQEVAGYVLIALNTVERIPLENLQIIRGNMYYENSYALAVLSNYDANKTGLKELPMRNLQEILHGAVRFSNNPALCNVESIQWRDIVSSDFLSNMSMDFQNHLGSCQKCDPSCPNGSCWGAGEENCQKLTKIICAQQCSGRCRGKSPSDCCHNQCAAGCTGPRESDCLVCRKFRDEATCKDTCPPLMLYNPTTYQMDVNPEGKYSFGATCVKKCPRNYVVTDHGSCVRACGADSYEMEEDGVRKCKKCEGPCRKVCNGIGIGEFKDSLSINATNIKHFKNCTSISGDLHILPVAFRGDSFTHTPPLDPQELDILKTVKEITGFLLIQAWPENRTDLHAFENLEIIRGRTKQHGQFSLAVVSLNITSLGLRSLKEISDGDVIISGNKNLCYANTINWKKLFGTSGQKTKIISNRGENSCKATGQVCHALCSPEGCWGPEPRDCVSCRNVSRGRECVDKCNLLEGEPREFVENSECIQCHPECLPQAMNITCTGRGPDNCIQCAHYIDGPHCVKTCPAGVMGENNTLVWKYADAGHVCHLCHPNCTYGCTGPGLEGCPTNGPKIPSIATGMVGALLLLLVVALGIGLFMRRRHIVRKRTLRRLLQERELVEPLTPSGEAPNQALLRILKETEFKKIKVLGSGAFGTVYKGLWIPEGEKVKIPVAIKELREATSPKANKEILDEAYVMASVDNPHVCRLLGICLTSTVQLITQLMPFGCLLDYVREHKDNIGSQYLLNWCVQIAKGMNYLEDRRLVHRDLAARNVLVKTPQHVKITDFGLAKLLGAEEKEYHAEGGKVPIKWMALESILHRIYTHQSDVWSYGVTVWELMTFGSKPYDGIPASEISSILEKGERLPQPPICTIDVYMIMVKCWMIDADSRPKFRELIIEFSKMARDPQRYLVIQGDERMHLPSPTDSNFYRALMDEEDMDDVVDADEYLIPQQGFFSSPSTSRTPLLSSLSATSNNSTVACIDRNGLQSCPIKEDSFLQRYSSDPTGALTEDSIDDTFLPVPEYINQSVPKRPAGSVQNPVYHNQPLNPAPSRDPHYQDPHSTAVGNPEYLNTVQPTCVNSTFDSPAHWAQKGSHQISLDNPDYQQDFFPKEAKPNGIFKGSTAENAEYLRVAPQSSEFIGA

Compound	labelling in transfected HeLa cells, immunoprecipitation, in-gel fluorescence
Nc1c(F)cc2c3c(cccc13)C(=O)CS2(=O)=O [compound 7, CysOx1]	Wild-type EGFR exhibited detectable fluorescence signal from CysOx1 or CysOx2
O=C1CS(=O)(=O)c2cc(F)c(N3CCC3)c3cccc1c23 [compound 8, CysOx2]	Wild-type EGFR exhibited detectable fluorescence signal from CysOx1 or CysOx2
